# Several values for one entry are separate records, joined by “and”; a condition that tells them apart may be missing. Equal values may be shown once. Where a name gives a salt, the structure may show the parent alone. Read-outs that look alike come from different tables or passages of the source.
# Key:
# DDK = details: read-out: DDK IC50 (in vitro), cited from earlier work
# MDA-MB-453 = experiment: Cell viability at 5 µM inhibitor; details: MDA-MB-453, 5 µM, 72 hrs, relative to vehicle
# HCC1954 cells [1] = experiment: Cell viability, CellTiter-Glo; format: cell-based; details: Homo sapiens, HCC1954, 72 hrs post drug addition
# Colo-205 cells [2] = experiment: Cell viability, CellTiter-Glo; format: cell-based; details: Homo sapiens; Colo-205, 72 hrs post drug addition
# HCC1954 cells [3] = experiment: Caspase 3/7 activity (apoptosis); format: cell-based; details: for Apoptosis induction (Caspase 3/7 activity): HCC1954, 24 hours
# Description: Caspase 3/7 activity and viable cell number were then measured using the Caspase-Glo 3/7 assay (Promega) and CellTiter-Glo assay (Promega), respectively.
# Colo-205 cells [4] = details: Colo-205, 24 hours
# human cell lines = details: average from 61 human cell lines ref 42,43; read-out: Cellular Proliferation IC50; cited from earlier work
# HCT116 (p53-/-) cells = experiment: Cell viability, CellTiter-Glo; format: cell-based; details: Homo sapiens, HCT-116, 72 hrs post drug addition
# MCF-7 = experiment: Cell viability at 5 µM inhibitor; details: MCF-7, 5 µM, 72 hrs, relative to vehicle
# purified Cdk9 = tested on: purified Cdk9; design: method as in PMID 18469809; details: purified Cdk9 ref 43; cited from earlier work
# Eight tumor cell lines = experiment: Cell viability at 5 µM inhibitor, cell line panel; format: cell-based; details: 72 hrs, relative to vehicle controls
# [5] = tested on: Mcm2 Serine 53 phosphorylation in HCC1954 cells; experiment: Immunoblot of DDK-dependent Mcm2 phosphorylation; format: cell-based
# Description: Whole cell extracts were prepared by re-suspending the pellets in RIPA buffer (150 mM NaCl, 1% NP-40, 0.5% sodium deoxycholate, 0.1% SDS, 50 mM Tris HCl, pH 8) containing protease inhibitors (100 µM PMSF, 1 mM Benzamide, 2.5 µg/ml Pepstatin A, 10 µg/ml Leupeptin, and 10 µg/ml Aprotinin) and phosphatase inhibitors (1 mM each NaF, Na3VO4 and Na4P2O7). Protein concentration was measured using the BCA protein assay kit (Pierce) according to manufacturer's protocol. Equal amounts of protein were subjected to SDS-PAGE and transferred to a nitrocellulose membrane (Millipore). Transfer efficiency and equal loading was confirmed by Ponceau S staining. Following primary and secondary antibody treatments, proteins were visualized using SuperSignal West Pico solutions (Thermo Scientific). Anti-Mcm2 and anti-S53-phospho-Mcm2 antibodies were purchased from Bethyl Laboratories; anti-β-actin was from Sigma; anti-mouse and anti-rabbit HRP antibodies were from GE Healthcare; and anti-Cdc7 and anti-Dbf4 antibodies were described previously.
# Effective cellular uptake of the DDK inhibitor should compromise DDK activity in vivo. Among the many targets of DDK are components of the replicative Mcm2–7 helicase. Serine 53 of Mcm2 subunit is a well-characterized target site for DDK mediated phosphorylation. We quantitated levels of phosphorylation on this site as a measure of DDK activity in vivo. […] Cells were then harvested at 0, 24, 48, and 72 hours post drug addition to measure viable cells and Mcm2 phosphorylation by immunoblotting.
# HCT116 (p53+/+) cells = experiment: Cell viability, CellTiter-Glo; format: cell-based; details: Homo sapiens, HCT-116; HCT116 (p53+/+), 72 hrs post drug addition
# [6] = tested on: Mcm2 phosphorylation in Colo-205 cells; experiment: Immunoblot of DDK-dependent Mcm2 phosphorylation; format: cell-based; details: Colo-205, 5 µM, 24 hours
# purified DDK [7] = target: T1, purified DDK (Homo sapiens, UniProt O00311); experiment: DDK thermal stability shift assay (TSA); format: binding
# T1 construct: His6-Smt3 (SUMO) (N, cleaved yes); made in house; host or cells: E. coli BL21-RIPL (pKT37, pETDuet-1 vector)
# purified DDK [8] = target: T1, purified DDK; experiment: In vitro (γ)-32P ATP DDK kinase assay (DDK auto-phosphorylation); format: biochemical; details: increasing inhibitor concentrations
# PKR = tested on: PKR; design: method as in PMID 12890478; details: cited from earlier work
# [9] = titration, beginning at a 1 µM concentration
# T1 sequence (O00311 whole entry): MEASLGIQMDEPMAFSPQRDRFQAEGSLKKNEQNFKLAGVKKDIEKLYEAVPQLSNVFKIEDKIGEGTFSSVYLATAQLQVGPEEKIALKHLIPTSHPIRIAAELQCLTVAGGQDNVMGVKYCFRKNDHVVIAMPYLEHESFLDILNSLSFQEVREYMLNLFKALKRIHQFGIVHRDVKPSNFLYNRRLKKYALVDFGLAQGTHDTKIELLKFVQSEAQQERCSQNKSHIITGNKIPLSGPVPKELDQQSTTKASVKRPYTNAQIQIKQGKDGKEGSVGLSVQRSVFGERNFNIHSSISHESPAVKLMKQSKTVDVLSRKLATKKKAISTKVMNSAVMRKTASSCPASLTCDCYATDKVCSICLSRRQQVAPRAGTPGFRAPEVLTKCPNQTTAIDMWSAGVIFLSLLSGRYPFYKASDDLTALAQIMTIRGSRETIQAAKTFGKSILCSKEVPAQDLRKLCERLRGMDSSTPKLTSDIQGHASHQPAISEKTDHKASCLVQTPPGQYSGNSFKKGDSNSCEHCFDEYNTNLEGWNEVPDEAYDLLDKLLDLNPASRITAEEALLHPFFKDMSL
# T1 sequence (Q9UBU7 341-674 partner limits assumed): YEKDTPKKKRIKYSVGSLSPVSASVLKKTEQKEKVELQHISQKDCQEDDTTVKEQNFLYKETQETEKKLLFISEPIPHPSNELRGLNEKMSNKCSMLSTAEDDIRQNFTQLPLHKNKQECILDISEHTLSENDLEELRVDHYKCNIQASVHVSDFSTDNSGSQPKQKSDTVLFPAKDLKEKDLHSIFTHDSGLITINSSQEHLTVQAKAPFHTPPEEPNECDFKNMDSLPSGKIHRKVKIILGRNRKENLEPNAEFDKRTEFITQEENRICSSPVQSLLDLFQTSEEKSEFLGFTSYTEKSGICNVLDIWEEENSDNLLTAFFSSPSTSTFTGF
molecule,measurement,setting,value
"N#Cc1ccc2ccn(-c3cc(N)ncn3)c2n1 [1-(6-aminopyrimidin-4-yl)pyrrolo[2,3-b]pyridine-6-carbonitrile]",IC50,DDK,0.009 µM
NC(=O)c1cc(-c2ccnc(N)n2)[nH]c1-c1ccccc1 [5-(2-Amino-pyrimidin-4-yl)-2-phenyl-1H-pyrrole-3-carboxamide],IC50,DDK,0.022 µM
"C=CCc1c(C)nc2sc3c(N)ncnc3c2c1C [7,9-dimethyl-8-prop-2-enylpyrido[2,3]thieno[2,4-d]pyrimidin-4-amine]",IC50,DDK,0.02 µM
"O=C1N=C(NCc2ccccc2)S/C1=C\c1c[nH]c2ncccc12 [(5Z)-2-(Benzylamino)-5-(1H-pyrrolo[2,3-b]pyridin-3-ylmethylene)-1,3-thiazol-4(5H)-one]",IC50,DDK,0.009 µM
"O=C1NCCc2[nH]c(-c3ccncc3)cc21 [PHA-767491, 2-pyridin-4-yl-1,5,6,7-tetrahydro-pyrrolo[3,2-c]pyridin-4-one]",Inhibition of proliferation,MDA-MB-453,2.5 fold
same,IC50,HCC1954 cells [1],0.64 µM
same,IC50,Colo-205 cells [2],1.3 µM
same,Apoptosis induction (Caspase 3/7 activity),HCC1954 cells [3],induced apoptosis
same,Apoptosis induction (Caspase 3/7 activity),Colo-205 cells [4],induced apoptosis
same,IC50,human cell lines,3.17 µM
same,IC50,HCT116 (p53-/-) cells,1 µM
same,Inhibition of proliferation,MCF-7,2 fold
same,IC50,purified Cdk9,0.034 µM
same,Anti-proliferative activity,Eight tumor cell lines,significantly inhibited proliferation in all cell lines tested
same,Mcm2 phosphorylation,"[5]; HCC1954, 1 µM, 24 to 72 hours",very little residual Mcm2 phosphorylation
same,Mcm2 phosphorylation,"[5]; HCC1954, 2 µM, by 24 hours",completely abolished Mcm2 phosphorylation
same,IC50,"DDK; purified kinase ref 42,43",0.01 µM
same,IC50,HCT116 (p53+/+) cells,0.45 µM
same,Mcm2 phosphorylation,[6],completely abolished Mcm2 phosphorylation
"Cc1ccc([N+](=O)[O-])cc1S(=O)(=O)N(C)/N=C/c1cnc2ccc(Br)cn12 [PI 3-Kα Inhibitor VIII, N-((1E)-(6-Bromoimidazo[1,2-a]pyridin-3-yl)methylene)-N'-methyl-N''-(2-methyl-5-nitrobenzene)sulfonohydrazide, HCl]",ΔTm at 20 µM,"purified DDK [7]; library screen, 20 µM compound",2.6 °C
same,IC50,purified DDK [8],1.3 µM
"O=C1Nc2ccc3ncsc3c2/C1=C/c1cnc[nH]1 [PKR inhibitor, (8Z)-8-(1H-imidazol-5-ylmethylidene)-6H-pyrrolo[2,3-g][1,3]benzothiazol-7-one]",ΔTm at 20 µM,"purified DDK [7]; library screen, 20 µM compound",2.4 °C
same,ΔTm,purified DDK [7]; [9],≥ 2 °C
same,IC50,"HCC1954 cells [1]; HCC1954, 72 h",1.7 µM
same,Increase of Caspase 3/7 activity relative to the DMSO control,"HCC1954 cells [3]; HCC1954, 2 µM, 24 hours",20 fold
same,IC50,PKR,0.21 µM
same,Mcm2 phosphorylation,"[5]; HCC1954, 2 µM PKR inhibitor",strongly inhibited Mcm2 phosphorylation
same,IC50,purified DDK [8],0.0675 µM and ~0.07 µM
"c1ccc2c(-c3ccncc3)c[nH]c2c1 [Rockout, 3-pyridin-4-yl-1H-indole]",ΔTm,purified DDK [7]; [9],≥ 2 °C
same,IC50,purified DDK [8],0.86 µM
C[S+]([O-])c1ccc(-c2nc(-c3ccc(F)cc3)c(-c3ccncc3)[nH]2)cc1.Cl (stereo not shown) [SB 203580 hydrochloride],ΔTm,"purified DDK [7]; library screen, 20 µM compound",0 °C
"CS(=O)(=O)c1ccc(-c2nc(-c3ccc(F)cc3)c(-c3ccncc3)[nH]2)cc1 [SB 203580, Sulfone]",ΔTm,purified DDK [7]; 20 µM,0.5 °C
O=C1NC(=O)c2c1c1c3ccccc3n3c1c1c2c2ccccc2n1[C@H]1CC[C@@H]3O1 [SB 218078],ΔTm,purified DDK [7]; [9],≥ 2 °C
same,IC50,"HCC1954 cells [1]; HCC1954, 72 h",2.42 µM
same,Apoptosis induction (Caspase 3/7 activity),HCC1954 cells [3],low levels of apoptosis were induced
same,Mcm2 phosphorylation,"[5]; HCC1954, SB 218078",modestly inhibits Mcm2 phosphorylation
same,IC50,purified DDK [8],0.0193 µM
NC(=O)c1ccc(-c2nc(-c3ccc4c(c3)OCO4)c(-c3ccccn3)[nH]2)cc1 [SB 431542],ΔTm at 20 µM,"purified DDK [7]; library screen, 20 µM compound",0 °C
N#C/C(=C(\N)Sc1ccc(N)cc1)c1ccccc1C(F)(F)F [SL 327],ΔTm at 20 µM,"purified DDK [7]; library screen, 20 µM compound",0.5 °C
Oc1c2ccccc2c2c3c(cccc13)N=N2 [SP 600125],ΔTm at 20 µM,"purified DDK [7]; library screen, 20 µM compound",0.2 °C
O=C(O)c1ccc2c3c1cccc3c(=O)n1c3ccccc3nc21 [STO-609],ΔTm at 20 µM,"purified DDK [7]; library screen, 20 µM compound",0.2 °C
CN(C)S(=O)(=O)c1ccc2c(c1)/C(=C/c1cc3c([nH]1)CCCC3)C(=O)N2 [SU6656],ΔTm at 20 µM,"purified DDK [7]; library screen, 20 µM compound",0.1 °C
COc1ccc2c(c1)/C(=C/c1cnc[nH]1)C(=O)N2 [SU9516],ΔTm at 20 µM,"purified DDK [7]; library screen, 20 µM compound",0 °C
CCN(CC)CCNC(=O)c1c(C)[nH]c(/C=C2\C(=O)Nc3ccc(Cl)cc32)c1C [SU11652],ΔTm at 20 µM,"purified DDK [7]; library screen, 20 µM compound",1.8 °C
CN(C)c1ccc(/C=C2\C(=O)Nc3ccccc32)cc1 [SU 4312],ΔTm,"purified DDK [7]; library screen, 20 µM compound, 20 µM",0.2 °C
Cl.Cl.NCCNc1ncc(C(N)=O)c(Nc2cccc(C(F)(F)F)c2)n1 [Syk Inhibitor II],ΔTm,"purified DDK [7]; library screen, 20 µM compound",1.2 °C
"Brc1c(Br)c(Br)c2[nH]nnc2c1Br [TBB, 4,5,6,7-Tetrabromobenzotriazole]",ΔTm,"purified DDK [7]; library screen, 20 µM compound",2.5 °C
"CNC1CC2OC(C)(C1OC)n1c3ccccc3c3c4c(c5c6ccccc6n2c5c31)C(=O)NC4O (stereo not shown) [UCN-01, 7-Hydroxystaurosporine]",ΔTm at 10 µM,"purified DDK [7]; library screen, 10 µM compound",2.1 °C
"COc1cc2ncnc(Nc3cccc(O)c3)c2cc1OC [WHI-P180, Hydrochloride]",ΔTm,"purified DDK [7]; library screen, 20 µM compound",0 °C
COc1cc2ncnc(Nc3ccc(Cl)cc3F)c2cc1OC.Cl [ZM 306416 hydrochloride],ΔTm,"purified DDK [7]; library screen, 20 µM compound",0 °C
Cc1ccc(NC(=O)c2cccc(N(C)C)c2)cc1NC(=O)c1ccc(O)cc1 [ZM 336372],ΔTm,"purified DDK [7]; library screen, 20 µM compound",0.5 °C
"Nc1nccc(-c2cc3c([nH]2)[C@@H](CCF)CNC3=O)n1 [[(S )-2-(2-aminopyrimidin-4-yl)-7-(2-fluoro-ethyl)-1,5,6,7-tetrahydropyrrolo[3,2-c]pyridin-4-one]",IC50,DDK,0.002 µM
"CCCCCCCCCCCCCCCCn1cc[n+](Cc2ccccc2)c1C.[I-] [eEF-2 Kinase Inhibitor, NH125]",ΔTm,"purified DDK [7]; library screen, 20 µM compound",0 °C
"Bisindolylmaleimide III, Hydrochloride",ΔTm,"purified DDK [7]; library screen, 20 µM compound",51 °C
Cdk1/2 Inhibitor III,ΔTm,"purified DDK [7]; library screen, 20 µM compound",1.1 °C
DNA-PK Inhibitor III,ΔTm,"purified DDK [7]; library screen, 20 µM compound",0.2 °C
IGF-1R Inhibitor II,ΔTm,"purified DDK [7]; library screen, 20 µM compound",0 °C
JAK3 Inhibitor II,ΔTm,"purified DDK [7]; library screen, 20 µM compound",0.8 °C
JAK3 Inhibitor IV,ΔTm,"purified DDK [7]; library screen, 20 µM compound",0.3 °C
JAK Inhibitor I,ΔTm,"purified DDK [7]; library screen, 20 µM compound",1.2 °C
KN-62,ΔTm,"purified DDK [7]; library screen, 20 µM compound",0.7 °C
LY 364947,ΔTm,"purified DDK [7]; library screen, 20 µM compound",0.6 °C
PI 3-Kb Inhibitor II,ΔTm,"purified DDK [7]; library screen, 20 µM compound",0.2 °C
"PP1 Analog II, 1NM-PP1",ΔTm,"purified DDK [7]; library screen, 20 µM compound",0.2 °C
Ro-31-8220,ΔTm,"purified DDK [7]; library screen, 20 µM compound",1.4 °C
VEGF Receptor Tyrosine Kinase Inhibitor II,ΔTm,"purified DDK [7]; library screen, 20 µM compound",0.2 °C
Wee1/Chk1 Inhibitor,ΔTm,"purified DDK [7]; library screen, 20 µM compound",0 °C

# From PMC4239038, “The Potent Cdc7-Dbf4 (DDK) Kinase Inhibitor XL413 Has Limited Activity in Many Cancer Cell Lines and Discovery of Potential New DDK Inhibitor Scaffolds” (PLoS ONE, 2014)
